This passage reports MIC results from ChEMBL document CHEMBL5113462, “Synthesis and evaluation of inhibitors of Mycobacterium tuberculosis UGM using bioisosteric replacement” (Bioorg Med Chem, 2022).

Where only a bound is given, the exact number is not on record here.

The subject of this assay is Mycobacterium tuberculosis variant bovis. The assay is described as follows: Antimycobacterial activity against Mycobacterium tuberculosis variant bovis BCG for 7 days by resazurin-based microdilution assay. It counts as functional. The following applies: 168 h, time 7 day.

By MIC is commonly meant the lowest concentration found to suppress growth. Lower therefore signals inhibition by little substance. `O=C(/C=C/c1ccccc1)N[C@@H](Cc1ccccc1)C(=O)O` had a minimal inhibitory concentration (MIC) above 400 µg/mL.
In the case of `O=C(/C=C/c1ccccc1)N[C@@H](Cc1ccc(I)cc1)C(=O)O`, the MIC was found to be 237 µM.
The same measure for `O=C(/C=C/c1ccccc1)N[C@@H](Cc1ccc([N+](=O)[O-])cc1)C(=O)O`: 1270 µM; for `O=C(/C=C/c1ccccc1)N[C@@H](Cc1ccc(Cl)cc1)C(=O)O`: 606 µM; for `O=C(/C=C/c1ccccc1)N[C@@H](Cc1ccc(Br)cc1)C(=O)O`: 1070 µM.
As for `CC[C@@H](CO)NCCN[C@@H](CC)CO` [ETHAMBUTOL], the figure is 4.9 µM.
